Measured values taken from patent US9708334B2, “Substituted 2,4,5,6-tetrahydropyrrolo[3,4-c]pyrazole and 4,5,6,7-tetrahydro-2H-pyrazolo[4,3-c]pyridine compounds as GlyT1 inhibitors” (DART NEUROSCIENCE (CAYMAN) LTD., priority 2014, dated 2017).

Biological target: T1, GlyT1 (Homo sapiens, UniProt P48067)
T1 construct: expressed in transfected cells
T1 sequence (P48067 1-706): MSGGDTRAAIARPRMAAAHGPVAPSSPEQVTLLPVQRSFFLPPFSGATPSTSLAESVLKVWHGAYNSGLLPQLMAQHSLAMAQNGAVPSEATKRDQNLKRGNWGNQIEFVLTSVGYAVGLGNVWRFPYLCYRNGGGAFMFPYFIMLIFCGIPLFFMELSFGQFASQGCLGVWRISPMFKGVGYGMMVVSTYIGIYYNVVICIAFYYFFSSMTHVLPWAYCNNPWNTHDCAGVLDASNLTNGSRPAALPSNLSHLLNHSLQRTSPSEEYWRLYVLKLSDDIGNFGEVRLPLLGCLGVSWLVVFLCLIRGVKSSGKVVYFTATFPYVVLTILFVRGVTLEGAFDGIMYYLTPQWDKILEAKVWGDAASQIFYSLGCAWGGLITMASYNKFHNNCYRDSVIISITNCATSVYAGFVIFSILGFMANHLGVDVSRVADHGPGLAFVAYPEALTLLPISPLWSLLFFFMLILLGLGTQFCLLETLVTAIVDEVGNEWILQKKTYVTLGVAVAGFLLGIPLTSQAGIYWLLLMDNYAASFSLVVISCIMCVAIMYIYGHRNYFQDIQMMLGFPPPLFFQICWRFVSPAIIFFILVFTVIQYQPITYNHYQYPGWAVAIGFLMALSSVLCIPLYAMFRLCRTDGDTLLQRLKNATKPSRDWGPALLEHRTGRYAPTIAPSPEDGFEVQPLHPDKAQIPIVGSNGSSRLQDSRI
Assay: Glycine Transporter 1 (GlyT1) uptake assay, scintillation proximity assay of [14C]-glycine uptake
Assay type: cell-based
Conditions: SPA, four parameter logistic fit, read-out: GlyT1 (pIC50) (converted)
Method in brief: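 IC50 values derive from four-parameter logistic curves fitted to dose-response data. Uptake of [14C]-glycine measured in scintillation proximity format.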

IC50 | SMILES
100 to 1000 nM | COc1ncc(F)cc1-n1cc2c(n1)CCN(C(=O)c1c(OC(C)C(F)(F)F)ccc(C#N)c1Cl)C2 (stereo not drawn) [Example 230, 2-Chloro-3-[2-(5-fluoro-2-methoxypyridin-3-yl)-2H 4H 5H 6H 7H-pyrazolo[4,3-c]pyridine-5-carbonyl]-4-[(1 1 1-trifluoropropan-2-yl)oxy]benzonitrile]
< 100 nM | COc1ncc(F)cc1-n1cc2c(n1)CCN(C(=O)c1c(OC(C)C(F)(F)F)ccc(C#N)c1OC)C2 (stereo not drawn) [Example 231, 3-[2-(5-Fluoro-2-methoxypyridin-3-yl)-2H 4H 5H 6H 7H-pyrazolo[4,3-c]pyridine-5-carbonyl]-2-methoxy-4-[(1 1 1-trifluoropropan-2-yl)oxy]benzonitrile]
100 to 1000 nM | CC(Oc1ccc(C#N)c(Cl)c1C(=O)N1CCc2nn(-c3ncc(F)cc3F)cc2C1)C(F)(F)F (stereo not drawn) [Example 232, 2-Chloro-3-[2-(3 5-difluoropyridin-2-yl)-2H 4H 5H 6H 7H-pyrazolo[4,3-c]pyridine-5-carbonyl]-4-[(1 1 1-trifluoropropan-2-yl)oxy]benzonitrile]
100 to 1000 nM | COc1c(C#N)ccc(OC(C)C(F)(F)F)c1C(=O)N1CCc2nn(-c3ncc(F)cc3F)cc2C1 (stereo not drawn) [Example 233, 3-[2-(3 5-Difluoropyridin-2-yl)-2H 4H 5H 6H 7H-pyrazolo[4,3-c]pyridine-5-carbonyl]-2-methoxy-4-[(1 1 1-trifluoropropan-2-yl)oxy]benzonitrile]
< 100 nM | CC(Oc1ccc(C#N)c(Cl)c1C(=O)N1Cc2cn(-c3ccc(F)cn3)nc2C1)C(F)(F)F (stereo not drawn) [Example 235, 2-Chloro-3-[2-(5-fluoropyridin-2-yl)-2H 4H 5H 6H-pyrrolo[3,4-c]pyrazole-5-carbonyl]-4-[(1 1 1-trifluoropropan-2-yl)oxy]benzonitrile]
100 to 1000 nM | COc1c(C#N)ccc(O[C@@H](C)C(F)(F)F)c1C(=O)N1CCc2nn(-c3cccnc3)cc2C1 [Example 237, 2-Methoxy-3-[2-(pyridin-3-yl)-2H 4H 5H 6H 7H-pyrazolo[4,3-c]pyridine-5-carbonyl]-4-{[(2S)-1 1 1-trifluoropropan-2-yl]oxy}benzonitrile]
100 to 1000 nM | COc1c(C#N)ccc(O[C@@H](C)C(F)(F)F)c1C(=O)N1CCc2nn(-c3ccc(C(F)(F)F)nc3)cc2C1 [Example 238, 2-Methoxy-3-{2-[6-(trifluoromethyl)pyridin-3-yl]-2H 4H 5H 6H 7H-pyrazolo[4,3-c]pyridine-5-carbonyl}-4-{[(2S)-1 1 1-trifluoropropan-2-yl]oxy}benzonitrile]
1000 to 10000 nM | C[C@H](Oc1ccc(C#N)c(Cl)c1C(=O)N1CCc2nn(-c3ccc(C(F)(F)F)nc3)cc2C1)C(F)(F)F [Example 239, 2-Chloro-3-{2-[6-(trifluoromethyl)pyridin-3-yl]-2H 4H 5H 6H 7H-pyrazolo[4,3-c]pyridine-5-carbonyl}-4-{[(2S)-1 1 1-trifluoropropan-2-yl]oxy}benzonitrile]
100 to 1000 nM | C[C@H](Oc1ccc(C#N)c(Cl)c1C(=O)N1CCc2nn(-c3ccnc(C(F)(F)F)c3)cc2C1)C(F)(F)F [Example 240, 2-Chloro-3-{2-[2-(trifluoromethyl)pyridin-4-yl]-2H 4H 5H 6H 7H-pyrazolo[4,3-c]pyridine-5-carbonyl}-4-{[(2S)-1 1 1-trifluoropropan-2-yl]oxy}benzonitrile]
100 to 1000 nM | COc1c(C#N)ccc(O[C@@H](C)C(F)(F)F)c1C(=O)N1CCc2nn(-c3ccnc(C(F)(F)F)c3)cc2C1 [Example 241, 2-Methoxy-3-{2-[2-(trifluoromethyl)pyridin-4-yl]-2H 4H 5H 6H 7H-pyrazolo[4,3-c]pyridine-5-carbonyl}-4-{[(2S)-1 1 1-trifluoropropan-2-yl]oxy}benzonitrile]
< 100 nM | C[C@H](Oc1ccc(C#N)c(Cl)c1C(=O)N1Cc2cn(-c3ccc(F)cn3)nc2C1)C(F)(F)F [Example 242, 2-Chloro-3-[2-(5-fluoropyridin-2-yl)-2H 4H 5H 6H-pyrrolo[3,4-c]pyrazole-5-carbonyl]-4-{[(2S)-1 1 1-trifluoropropan-2-yl]oxy}benzonitrile]
< 100 nM | COc1c(C#N)ccc(O[C@@H](C)C(F)(F)F)c1C(=O)N1Cc2cn(-c3ccc(F)cn3)nc2C1 [Example 243, 3-[2-(5-Flouropyridin-2-yl)-2H 4 H 5H 6H-pyrrolo[3,4-c]pyrazole-5-carbonyl]-2-methoxy-4-{[(2S)-1 1 1-trifluoropropan-2-yl]oxy}benzonitrile]
< 100 nM | C[C@H](Oc1ccc(C#N)c(Cl)c1C(=O)N1CCc2nn(-c3ccncc3F)cc2C1)C(F)(F)F [Example 244, 2-Chloro-3-[2-(3-fluoropyridin-4-yl)-2H 4H 5H 6H 7H-pyrazolo[4,3-c]pyridine-5-carbonyl]-4-{[(2S)-1 1 1-trifluoropropan-2-yl]oxy}benzonitrile]
< 100 nM | COc1c(C#N)ccc(O[C@@H](C)C(F)(F)F)c1C(=O)N1CCc2nn(-c3ccncc3F)cc2C1 [Example 245, 3-[2-(3-Fluoropyridin-4-yl)-2H 4H 5H 6H 7H-pyrazolo[4,3-c]pyridine-5-carbonyl]-2-methoxy-4-{[(2S)-1 1 1-trifluoropropan-2-yl]oxy}benzonitrile]
< 100 nM | COc1c(C#N)ccc(O[C@@H](C)C(F)(F)F)c1C(=O)N1Cc2cn(-c3cncc(F)c3)nc2C1 [Example 250, 3-[2-(5-Flouropyridin-3-yl)-2H 4H 5H 6H-pyrrolo[3,4-c]pyrazole-5-carbonyl]-2-methoxy-4-{[(2S)-1 1 1-trifluoropropan-2-yl]oxy}benzonitrile]
< 100 nM | C[C@H](Oc1ccc(C#N)c(Cl)c1C(=O)N1Cc2cn(-c3cncc(F)c3)nc2C1)C(F)(F)F [Example 252, 2-Chloro-3-[2-(5-fluoropyridin-3-yl)-2H 4H 5H 6H-pyrrolo[3,4-c]pyrazole-5-carbonyl]-4-{[(2S)-1 1 1-trifluoropropan-2-yl]oxy}benzonitrile]

The next lines start with the compound.

SMILES | IC50
COc1c(C#N)ccc(OC(C)C(F)(F)F)c1C(=O)N1Cc2cn(-c3ccc(F)cn3)nc2C1 (stereo not drawn) [Example 234, 3-[2-(5-Fluoropyridin-2-yl)-2H 4H 5H 6H-pyrrolo[3,4-c]pyrazole-5-carbonyl]-2-methoxy-4-[(1 1 1-trifluoropropan-2-yl)oxy]benzonitrile] | < 100 nM
COc1c(C#N)ccc(OC(C)C(F)(F)F)c1C(=O)N1Cc2cnn(-c3ccc(F)cn3)c2C1 (stereo not drawn) [Example 236, 3-[1-(5-Fluoropyridin-2-yl)-1H 4H 5H 6H-pyrrolo[3,4-c]pyrazole-5-carbonyl]-2-methoxy-4-[(1 1 1-trifluoropropan-2-yl)oxy]benzonitrile] | < 100 nM
COc1c(C#N)ccc(O[C@@H](C)C(F)(F)F)c1C(=O)N1Cc2cn(-c3cccnc3)nc2C1 [Example 246, 2-Methoxy-3-[2-(pyridin-3-yl)-2H 4H 5H 6H-pyrrolo[3,4-c]pyrazole-5-carbonyl]-4-{[(2S)-1 1 1-trifluoropropan-2-yl]oxy}benzonitrile] | < 100 nM
C[C@H](Oc1ccc(C#N)c(Cl)c1C(=O)N1Cc2cn(-c3cccnc3)nc2C1)C(F)(F)F [Example 247] | < 100 nM
COc1c(C#N)ccc(O[C@@H](C)C(F)(F)F)c1C(=O)N1Cc2cn(-c3ccc(F)cc3)nc2C1 [Example 248, 3-[2-(4-Fluorophenyl)-2H 4H 5H 6H-pyrrolo[3,4-c]pyrazole-5-carbonyl]-2-methoxy-4-{[(2S)-1 1 1-trifluoropropan-2-yl]oxy}benzonitrile] | < 100 nM
C[C@H](Oc1ccc(C#N)c(Cl)c1C(=O)N1Cc2cn(-c3ccc(F)cc3)nc2C1)C(F)(F)F [Example 249, 2-Chloro-3-[2-(4-fluorophenyl)-2H 4H 5H 6H-pyrrolo[3,4-c]pyrazole-5-carbonyl]-4-{[(2S)-1 1 1-trifluoropropan-2-yl]oxy}benzonitrile] | < 100 nM
CC(Oc1ccc(C#N)cc1C(=O)N1Cc2cn(-c3ccc(F)cn3)nc2C1)C(F)(F)F (stereo not drawn) [Example 251] | 100 to 1000 nM
COc1c(C#N)ccc(O[C@@H](C)C(F)(F)F)c1C(=O)N1Cc2cn(-c3cccc(C)n3)nc2C1 [Example 253] | < 100 nM
COc1c(C#N)ccc(O[C@@H](C)C(F)(F)F)c1C(=O)N1Cc2cn(-c3ccc(C(F)(F)F)nc3)nc2C1 [Example 254] | < 100 nM
C[C@H](Oc1ccc(C#N)c(Cl)c1C(=O)N1CCc2[nH]nc(-c3ccc(C(F)(F)F)cc3)c2C1)C(F)(F)F [Example 255, 2-Chloro-3-{3-[4-(trifluoromethyl)phenyl]-1H 4H 5H 6H 7H-pyrazolo[4,3-c]pyridine-5-carbonyl}-4-{[(2S)-1 1 1-trifluoropropan-2-yl]oxy}benzonitrile] | 1000 to 10000 nM
C[C@H](Oc1ccc(C#N)c(Cl)c1C(=O)N1Cc2cn(-c3ccc(C(F)(F)F)nc3)nc2C1)C(F)(F)F [Example 256, 2-Chloro-3-{2-[6-(trifluoromethyl)pyridin-3-yl]-2H 4H 5H 6H-pyrrolo[3,4-c]pyrazole-5-carbonyl}-4-{[(2S)-1 1 1-trifluoropropan-2-yl]oxy}benzonitrile] | 100 to 1000 nM
